Experimental findings from ChEMBL document CHEMBL1145267, “Antioxidant and antiproliferative activity of curcumin semicarbazone” (2005) are described below.

Holding throughout (type): functional
One test has as its system MCF7. As to the kind of experiment: Compound tested for percent viability of human MCF-7 cell line at 1 mg/mL concentration after 24 hrs by MTT method. For orientation: Formazan colour is commonly taken as a measure of viable cells.
For test [1], the species on record is Rattus norvegicus. In words: Compound (10 uM) tested for percent inhibition of […] induced lipid peroxidation in rat liver microsomes; Range 85-54%. In general terms: Liver microsomes are a subcellular fraction often used to study metabolism.
Test [2] is filed under the species Rattus norvegicus. In words: Compound (10 uM) tested for percent inhibition of […] induced lipid peroxidation in rat liver microsomes; Range 80-60%.

Regarding `COc1cc(/C=C/C(=O)CC(/C=C/c2ccc(O)c(OC)c2)=N/NC(N)=O)ccc1O`, the Viability in the test with MCF7 is listed as 26%. For the same molecule, the inhibition (commonly the percentage by which the read-out fell short of the control) in the test listed under Rattus norvegicus [1] stood at 85%.
In the case of `COc1cc(/C=C/C(=O)CC(=O)/C=C/c2ccc(O)c(OC)c2)ccc1O` [CURCUMIN], the Viability with MCF7 was 64%. The molecule also displayed an inhibition in the test listed under Rattus norvegicus [2] of 80%.
